Test [1] deals with 5'ATP aptamer-bridge (DNA, aptamer) CTAGCGAGCGAACTTTACCTGGGGGAGTATTGCGGAGGAAGGT
Description: CD of origami-AuNR probe, single concentration. The note with it: 5 mM Mg2+, PBS, room temperature, overnight, up to 1 mM.

Test [2] concerns 5'glucose aptamer-bridge (DNA, aptamer) CTAGCGAGCGAACTTTACGACCGTGTGTGTTGCTCTGTAACAGTGTCCATTGTCGT
As to the kind of experiment: CD of origami-AuNR probe, single concentration. The note with it: 5 mM Mg2+, PBS, room temperature, overnight, up to 100 mM fructose, displaced 5' strand n = 10.

Test [3] has as its system 5'ATP aptamer-bridge (DNA, aptamer) CTAGCGAGCGAACTTTACCTGGGGGAGTATTGCGGAGGAAGGT
As to the kind of experiment: CD of origami-AuNR probe, competitive hybridization, complementary strand length varied. The note with it: 5 mM Mg2+, PBS, room temperature, overnight, 1 mM ATP, displaced 5'ATPCS9-12, R^2 0.96.

Test [4] shares this test system. As to the kind of experiment: CD of origami-AuNR probe, competitive hybridization, ATP concentration varied. The following applies: 5 mM Mg2+, PBS, room temperature, overnight, ATP 1 μM to 1 mM, displaced 5'ATPCS9 (n = 9).
Test [5] relates to 5'glucose aptamer-bridge (DNA, aptamer) CTAGCGAGCGAACTTTACGACCGTGTGTGTTGCTCTGTAACAGTGTCCATTGTCGT
Description: CD of origami-AuNR probe, competitive hybridization, complementary strand length varied. The note with it: 5 mM Mg2+, PBS, room temperature, overnight, 100 mM glucose, displaced 5'gluCS8-12, R^2 0.99.

As to `Nc1ccn([C@@H]2O[C@H](COP(=O)(O)OP(=O)(O)OP(=O)(O)O)[C@@H](O)[C@H]2O)c(=O)n1`, the binding result in test [1] (displaced 5'ATPCS9, CD change 2.1% (ATP 53.7%)) was “no”.

On to `OCC1(O)OC[C@@H](O)[C@@H](O)[C@@H]1O` (stereo partly drawn), for which the binding result in test [2] is listed as “no”.

For the compound `Nc1nc2c(ncn2[C@@H]2O[C@H](COP(=O)(O)OP(=O)(O)OP(=O)(O)O)[C@@H](O)[C@H]2O)c(=O)[nH]1`, in test [1] (displaced 5'ATPCS9, CD change 3.6% (ATP 53.7%)), the binding entry is “no”.

`Nc1ncnc2c1ncn2[C@@H]1O[C@H](COP(=O)(O)OP(=O)(O)OP(=O)(O)O)[C@@H](O)[C@H]1O`: the “KD2^ATP” value in test [3] came out at 5.71 ± 0.865 µM; in test [4], 4.54 ± 0.580 µM.

Take `OC[C@H]1OC(O)[C@H](O)[C@@H](O)[C@@H]1O` (stereo partly drawn): in test [5], the “KD2^glu” value was found to be 5.57 ± 0.436 mM.

Source of the values: publication PMC8908738 (2022).
